A short description of one data set: in vivo. Conditions: male, C57BL/6J, mouse; for bioavailability: Bioavailability s.c.; for half-life: 200 nmol/kg.
The target in a further data set is T1, human GIP R (Homo sapiens, UniProt P48546).
T1 sequence (P48546 22-466): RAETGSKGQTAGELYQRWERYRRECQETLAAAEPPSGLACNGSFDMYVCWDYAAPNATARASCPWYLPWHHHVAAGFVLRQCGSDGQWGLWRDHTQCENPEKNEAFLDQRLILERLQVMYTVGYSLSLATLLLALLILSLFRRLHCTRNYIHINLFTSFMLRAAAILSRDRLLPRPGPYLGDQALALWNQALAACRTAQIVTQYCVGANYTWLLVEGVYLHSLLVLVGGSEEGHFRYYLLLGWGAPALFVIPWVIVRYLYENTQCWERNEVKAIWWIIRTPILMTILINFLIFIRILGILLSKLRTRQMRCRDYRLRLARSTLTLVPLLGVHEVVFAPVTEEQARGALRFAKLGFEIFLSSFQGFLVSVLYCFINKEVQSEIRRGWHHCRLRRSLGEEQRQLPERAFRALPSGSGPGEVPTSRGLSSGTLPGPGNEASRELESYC
In words: cell-based.

Data set [1] concerns the target T2, human GIP receptor (GIP R) (Homo sapiens, UniProt P48546).
T2 sequence (P48546 22-466): T1 sequence (P48546 22-466)
In words: Activity assay at human GIP receptor, cAMP induction (AlphaScreen), Example 3.

For data set [2], the target named is human GLP-1 receptor (GLP-1R) (Homo sapiens, UniProt P43220). In words: Activity assay at human GLP-1 receptor, cAMP induction (AlphaScreen), Example 3. In general terms: Bead proximity is the source of the signal in Alpha formats.

Starred links: 1 amine or outer side, 2 acyl side, 3 side chain; linkers in the order of their positions; H or OH if unused. Non-standard residues stand in square brackets, D forms with d. Residues, ends and D or L forms follow the SMILES beside them. Groups on a side chain read outwards from the residue. *: point of attachment. X1 = O=C(O)CCCCCCCCCCCCCCCCCCC(=O)N1CCN(CC(=O)*)CC1; C20 diacid = O=C(O)CCCCCCCCCCCCCCCCCCC(=O)*; γGlu = O=C(O)[C@H](CCC(=O)[*:2])N[*:1]; AEEA = NCCOCCOCC(=O)O; Aib = CC(C)(N)C(=O)O A value given as a limit tells only on which side of the number the result lay.

A word on the bioavailability: it is the share of a dose that reaches the circulation, judged against a reference dose that is usually intravenous. Low readings indicate little systemic uptake, high ones much systemic uptake. A word on the half-life: it is how long it takes for the measured level to halve. High values mean slow loss, low ones fast loss. The term Tmax denotes the time at which the peak concentration occurs. A word on the EC50: it is the midpoint of the concentration-response curve. High values mean a need for much substance, low ones an effect from little substance.

human GLP-1 receptor (GLP-1R), sequence (P43220 24-463): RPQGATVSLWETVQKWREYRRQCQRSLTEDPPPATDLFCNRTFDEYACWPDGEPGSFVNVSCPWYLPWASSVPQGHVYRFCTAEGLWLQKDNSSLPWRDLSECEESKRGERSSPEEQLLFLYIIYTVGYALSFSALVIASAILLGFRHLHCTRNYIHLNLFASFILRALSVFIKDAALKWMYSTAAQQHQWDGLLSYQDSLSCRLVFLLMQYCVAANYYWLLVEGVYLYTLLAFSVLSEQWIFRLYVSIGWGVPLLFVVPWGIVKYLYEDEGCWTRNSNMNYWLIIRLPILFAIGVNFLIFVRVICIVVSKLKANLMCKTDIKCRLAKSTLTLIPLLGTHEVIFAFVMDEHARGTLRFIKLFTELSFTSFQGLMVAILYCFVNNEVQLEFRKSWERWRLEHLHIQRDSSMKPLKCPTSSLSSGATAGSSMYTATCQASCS

As for `CC[C@H](C)[C@H](NC(=O)[C@H](CO)NC(=O)[C@H](Cc1ccc(O)cc1)NC(=O)[C@H](CC(=O)O)NC(=O)[C@H](CO)NC(=O)[C@@H](NC(=O)[C@H](Cc1ccccc1)NC(=O)[C@@H](NC(=O)CNC(=O)[C@H](CCC(=O)O)NC(=O)C(C)(C)NC(=O)[C@@H](N)Cc1ccc(O)cc1)[C@@H](C)O)[C@@H](C)CC)C(=O)N[C@@H](CCC(=O)O)C(=O)N[C@@H](CC(C)C)C(=O)N[C@@H](CC(=O)O)C(=O)N[C@@H](CCCCN)C(=O)N[C@@H](CCCCNC(=O)COCCOCCNC(=O)COCCOCCNC(=O)CC[C@H](NC(=O)CCCCCCCCCCCCCCCCCCC(=O)O)C(=O)O)C(=O)N[C@@H](C)C(=O)N[C@@H](C)C(=O)N[C@@H](CCC(N)=O)C(=O)N[C@@H](CC(=O)O)C(=O)N[C@@H](Cc1ccccc1)C(=O)N[C@H](C(=O)N[C@@H](CC(N)=O)C(=O)N[C@@H](Cc1c[nH]c2ccccc12)C(=O)N[C@@H](CC(C)C)C(=O)N[C@@H](CC(C)C)C(=O)N[C@@H](C)C(=O)N[C@@H](CCC(N)=O)C(=O)NCC(=O)N1CCC[C@H]1C(=O)N[C@@H](CO)C(=O)N[C@@H](CO)C(=O)NCC(=O)N[C@@H](C)C(=O)N1CCC[C@H]1C(=O)N1CCC[C@H]1C(=O)N1CCC[C@H]1C(=O)N[C@@H](CO)C(N)=O)C(C)C` [Compound 10] (H-Y[Aib]EGTFISDYSIELDKK([AEEA-AEEA-γGlu-C20 diacid])AAQDFVNWLLAQGPSSGAPPPS-NH2), the bioavailability is 100% in “in vivo” and 77% in the data set “in vivo” (sc, repeated test). The half-life in “in vivo” (iv, Terminal elimination half-life T½ i.v.) is 1010 min; in “in vivo” (sc, Terminal elimination half-life T½ s.c.), 1270 min. Further, in the data set “in vivo” (sc), the time to peak (Tmax) turned out to be 4 h. Also, the EC50 was 7 pM on human GIP R, 8 pM in data set [1] and above 10 nM in data set [2].
For the compound `CC[C@H](C)[C@H](NC(=O)[C@H](Cc1ccccc1)NC(=O)[C@H](C)NC(=O)[C@H](CCCNC(=N)N)NC(=O)[C@H](CCC(N)=O)NC(=O)[C@H](C)NC(=O)[C@H](CCCCNC(=O)COCCOCCNC(=O)COCCOCCNC(=O)CC[C@H](NC(=O)CCCCCCCCCCCCCCCCCCC(=O)O)C(=O)O)NC(=O)[C@H](CCCCN)NC(=O)[C@H](CC(=O)O)NC(=O)[C@H](CC(C)C)NC(=O)[C@H](CCC(=O)O)NC(=O)[C@@H](NC(=O)[C@H](CO)NC(=O)[C@H](Cc1ccc(O)cc1)NC(=O)[C@H](CC(=O)O)NC(=O)[C@H](CO)NC(=O)[C@@H](NC(=O)[C@H](Cc1ccccc1)NC(=O)[C@@H](NC(=O)CNC(=O)[C@H](CCC(=O)O)NC(=O)[C@@H](C)NC(=O)[C@@H](N)Cc1ccc(O)cc1)[C@@H](C)O)[C@@H](C)CC)[C@@H](C)CC)C(=O)N[C@@H](CCC(=O)O)C(=O)N[C@@H](Cc1c[nH]c2ccccc12)C(=O)N[C@@H](CC(C)C)C(=O)N[C@@H](CC(C)C)C(=O)N[C@@H](C)C(=O)N[C@@H](CCC(N)=O)C(=O)NCC(=O)N1CCC[C@H]1C(=O)N[C@@H](CO)C(=O)N[C@@H](CO)C(=O)NCC(=O)N[C@@H](C)C(=O)N1CCC[C@H]1C(=O)N1CCC[C@H]1C(=O)N1CCC[C@H]1C(=O)N[C@@H](CO)C(N)=O` [Compound 36] (H-Y[dA]EGTFISDYSIELDKK([AEEA-AEEA-γGlu-C20 diacid])AQRAFIEWLLAQGPSSGAPPPS-NH2), the EC50 at human GIP R is 6 pM; in data set [1] it was 6 pM; in data set [2], above 10 nM.
With `CC[C@H](C)[C@H](NC(=O)[C@H](CCCCN)NC(=O)[C@H](CC(=O)O)NC(=O)[C@H](CC(C)C)NC(=O)[C@H](CCC(=O)O)NC(=O)[C@@H](NC(=O)[C@H](CO)NC(=O)[C@H](Cc1ccc(O)cc1)NC(=O)[C@H](CC(=O)O)NC(=O)[C@H](CO)NC(=O)[C@@H](NC(=O)[C@H](Cc1ccccc1)NC(=O)[C@@H](NC(=O)CNC(=O)[C@H](CCC(=O)O)NC(=O)[C@@H](C)NC(=O)[C@@H](N)Cc1ccc(O)cc1)[C@@H](C)O)[C@@H](C)CC)[C@@H](C)CC)C(=O)N[C@@H](C)C(=O)N[C@@H](C)C(=O)N[C@@H](CCC(N)=O)C(=O)N[C@@H](CC(=O)O)C(=O)N[C@@H](Cc1ccccc1)C(=O)N[C@H](C(=O)N[C@@H](CCC(=O)O)C(=O)N[C@@H](Cc1c[nH]c2ccccc12)C(=O)N[C@@H](CC(C)C)C(=O)N[C@@H](CC(C)C)C(=O)N[C@@H](C)C(=O)NCC(=O)N1CCC[C@H]1C(=O)N[C@@H](CO)C(=O)N[C@@H](CO)C(=O)NCC(=O)N[C@@H](C)C(=O)N1CCC[C@H]1C(=O)N1CCC[C@H]1C(=O)N1CCC[C@H]1C(=O)N[C@@H](CO)C(=O)N[C@@H](CCCCNC(=O)COCCOCCNC(=O)COCCOCCNC(=O)CN1CCN(C(=O)CCCCCCCCCCCCCCCCCCC(=O)O)CC1)C(N)=O)[C@@H](C)CC` [Compound 37] (H-Y[dA]EGTFISDYSIELDKIAAQDFIEWLLAGPSSGAPPPSK([AEEA-AEEA-X1])-NH2), the results for the EC50 (on human GIP R; in data set [1]; in data set [2]) were 16 pM, 6 pM and above 10 nM, respectively.
Turning to `CC[C@H](C)[C@H](NC(=O)[C@H](Cc1ccccc1)NC(=O)[C@H](CC(=O)O)NC(=O)[C@H](CCC(N)=O)NC(=O)[C@H](C)NC(=O)[C@H](C)NC(=O)[C@H](CCCCNC(=O)COCCOCCNC(=O)COCCOCCNC(=O)CC[C@H](NC(=O)CCCCCCCCCCCCCCCCCCC(=O)O)C(=O)O)NC(=O)[C@H](CCCCN)NC(=O)[C@H](CC(=O)O)NC(=O)[C@H](CC(C)C)NC(=O)[C@H](CCC(=O)O)NC(=O)[C@@H](NC(=O)[C@H](CO)NC(=O)[C@H](Cc1ccc(O)cc1)NC(=O)[C@H](CC(=O)O)NC(=O)[C@H](CO)NC(=O)[C@@H](NC(=O)[C@H](Cc1ccccc1)NC(=O)[C@@H](NC(=O)CNC(=O)[C@H](CCC(=O)O)NC(=O)C(C)(C)NC(=O)[C@@H](N)Cc1ccc(O)cc1)[C@@H](C)O)[C@@H](C)CC)[C@@H](C)CC)C(=O)N[C@@H](CCC(=O)O)C(=O)N[C@@H](Cc1c[nH]c2ccccc12)C(=O)N[C@@H](CC(C)C)C(=O)N[C@@H](CC(C)C)C(=O)N[C@@H](C)C(=O)N[C@@H](CCC(N)=O)C(=O)NCC(=O)N1CCC[C@H]1C(=O)N[C@@H](CO)C(=O)N[C@@H](CO)C(=O)NCC(=O)N[C@@H](C)C(=O)N1CCC[C@H]1C(=O)N1CCC[C@H]1C(=O)N1CCC[C@H]1C(=O)N[C@@H](CO)C(N)=O` [Compound 38] (H-Y[Aib]EGTFISDYSIELDKK([AEEA-AEEA-γGlu-C20 diacid])AAQDFIEWLLAQGPSSGAPPPS-NH2), the EC50 at human GIP R is 1 pM; in data set [1], 17 pM; in data set [2], above 100 nM.
Taken in the same sequence, the figures for `CC[C@H](C)[C@H](NC(=O)[C@H](Cc1ccccc1)NC(=O)[C@H](CC(=O)O)NC(=O)[C@H](CCC(N)=O)NC(=O)[C@H](C)NC(=O)[C@H](C)NC(=O)[C@H](CCCCNC(=O)COCCOCCNC(=O)COCCOCCNC(=O)CC[C@H](NC(=O)CCCCCCCCCCCCCCCCCCC(=O)O)C(=O)O)NC(=O)[C@H](CCCCN)NC(=O)[C@H](CC(=O)O)NC(=O)[C@H](CC(C)C)NC(=O)[C@H](CCC(=O)O)NC(=O)[C@@H](NC(=O)[C@H](CO)NC(=O)[C@H](Cc1ccc(O)cc1)NC(=O)[C@H](CC(=O)O)NC(=O)[C@H](CO)NC(=O)[C@@H](NC(=O)[C@H](Cc1ccccc1)NC(=O)[C@@H](NC(=O)CNC(=O)[C@H](CCC(=O)O)NC(=O)C(C)(C)NC(=O)[C@@H](N)Cc1ccc(O)cc1)[C@@H](C)O)[C@@H](C)CC)[C@@H](C)CC)C(=O)N[C@@H](CC(N)=O)C(=O)N[C@@H](Cc1c[nH]c2ccccc12)C(=O)N[C@@H](CC(C)C)C(=O)N[C@@H](CC(C)C)C(=O)N[C@@H](C)C(=O)N[C@@H](CCC(N)=O)C(=O)NCC(=O)N1CCC[C@H]1C(=O)N[C@@H](CO)C(=O)N[C@@H](CO)C(=O)NCC(=O)N[C@@H](C)C(=O)N1CCC[C@H]1C(=O)N1CCC[C@H]1C(=O)N1CCC[C@H]1C(=O)N[C@@H](CO)C(N)=O` [Compound 39] (H-Y[Aib]EGTFISDYSIELDKK([AEEA-AEEA-γGlu-C20 diacid])AAQDFINWLLAQGPSSGAPPPS-NH2) were 7 pM, 1 pM and above 100 nM.
`CC[C@H](C)[C@H](NC(=O)[C@H](Cc1ccccc1)NC(=O)[C@H](C)NC(=O)[C@H](CCC(N)=O)NC(=O)[C@H](C)NC(=O)[C@H](C)NC(=O)[C@H](CCCCNC(=O)COCCOCCNC(=O)COCCOCCNC(=O)CC[C@H](NC(=O)CCCCCCCCCCCCCCCCCCC(=O)O)C(=O)O)NC(=O)[C@H](CCCCN)NC(=O)[C@H](CC(=O)O)NC(=O)[C@H](CC(C)C)NC(=O)[C@H](CCC(=O)O)NC(=O)[C@@H](NC(=O)[C@H](CO)NC(=O)[C@H](Cc1ccc(O)cc1)NC(=O)[C@H](CC(=O)O)NC(=O)[C@H](CO)NC(=O)[C@@H](NC(=O)[C@H](Cc1ccccc1)NC(=O)[C@@H](NC(=O)CNC(=O)[C@H](CCC(=O)O)NC(=O)C(C)(C)NC(=O)[C@@H](N)Cc1ccc(O)cc1)[C@@H](C)O)[C@@H](C)CC)[C@@H](C)CC)C(=O)N[C@@H](CCC(=O)O)C(=O)N[C@@H](Cc1c[nH]c2ccccc12)C(=O)N[C@@H](CC(C)C)C(=O)N[C@@H](CC(C)C)C(=O)N[C@@H](C)C(=O)N[C@@H](CCC(N)=O)C(=O)NCC(=O)N1CCC[C@H]1C(=O)N[C@@H](CO)C(=O)N[C@@H](CO)C(=O)NCC(=O)N[C@@H](C)C(=O)N1CCC[C@H]1C(=O)N1CCC[C@H]1C(=O)N1CCC[C@H]1C(=O)N[C@@H](CO)C(N)=O` [Compound 40]: the figures for the EC50 (at human GIP R; in data set [1]; in data set [2]) were 10 pM, 7 pM and above 10 nM, respectively.

These data come from patent US12703729B2, “GIP agonist compounds and methods” (Zealand Pharma A/S, priority 2014, dated 2026).
